Data published in US20220193081A1 (Ellamed IP & Services PTE. LTD., priority 2019, published 2022).

Legend:
Format in all cases: physicochemical
[1] = Visual inspection on storage of sildenafil citrate in buffered 60% aqueous ethanol (Example 4); conditions: pH 5.5, NaOH
Protocol: (§1) Before being placed on storage, and at time points 7 and 42 days, the concentration of sildenafil in the mixtures were assayed using HPLC. The samples were then stored at either −20° C., 2-8° C. or 25° C. for periods of up to 42 days. Periodically, the samples were visually inspected for evidence of crystallization.

[2] = Extended stability in buffered 50% ethanol, HPLC assay of sildenafil and impurities (Example 6)
Protocol: Before being placed on storage in glass vials, plastic containers or Easysnap® blisters, and at time points up to 160 days, the concentration of sildenafil and its impurities in the mixtures were assayed using HPLC. The samples were then stored at 25° C./60% RH, 30° C./65% RH or 40° C./75% RH for periods of up to 160 days. The results of the assays are shown in Table 10 (sildenafil), Table 11 (Impurity B) and Table 12 (Impurity D).

[3] = Ionic strength study, visual inspection: sildenafil citrate and sucralose in absolute alcohol mixed with equal volume of NaCl solution or purified water (Example 3)
Protocol: The mixtures were then either placed on storage or NaOH 1N solution was introduced to reach a predetermined pH values. Before being placed on storage, and at time points 7 and 42 days, the concentration of sildenafil in the mixtures were assayed using HPLC. The samples were then stored at either −20° C., 2-8° C. or 25° C. for periods of up to 42 days. Periodically, the samples were visually inspected for evidence of crystallization.

[4] = HPLC assay on storage of sildenafil citrate in buffered 60% aqueous ethanol (Example 4); conditions: pH 5.5, NaOH
Protocol: as §1

[5] = Easysnap ®, 25° C./60% RH, Day 32
[6] = Easysnap ®, 25° C./60% RH, Day 80
[7] = Easysnap ®, 25° C./60% RH, Day 159
[8] = Easysnap ®, 30° C./65% RH, Day 32
[9] = Easysnap ®, 40° C./75% RH, Day 32
[10] = plastic, 25° C./60% RH, Day 159

CCCc1nn(C)c2c(=O)nc(-c3cc(S(=O)(=O)N4CCN(C)CC4)ccc3OCC)[nH]c12.O=C(O)CC(O)(CC(=O)O)C(=O)O [sildenafil citrate, 1-[[3-(4,7-Dihydro-1-methyl-7-oxo-3-propyl-1H-pyrazolo[4,3-d]pyrimidin-5-yl)-4-ethoxyphenyl]sulfonyl]-4-methylpiperazine citrate salt]
visual inspection for crystallization ([1]; 18 mg/ml, with sucralose, 2-8° C.): Prec.
visual inspection for crystallization ([1]; 18 mg/ml, with sucralose, −20° C.): Prec.
visual inspection for crystallization ([1]; 18 mg/ml, without sucralose, 2-8° C.): Prec.
visual inspection for crystallization ([1]; 18 mg/ml, without sucralose, −20° C.): Prec.
visual inspection for crystallization ([1]; 21 mg/ml, without sucralose, 2-8° C.): Prec.
visual inspection for crystallization ([1]; 21 mg/ml, without sucralose, −20° C.): Prec.
sildenafil assay ([2]; 20 mg/ml with sucralose 1 mg/ml, monoammonium glycyrrhizinate 1 mg/ml, eucalyptus-menthol 3 mg/ml, Day 0, before storage): 102.02 % LS
Impurity B [2, 5]: 0.09 % RS
Impurity D [2, 5]: 0.030 % RS
sildenafil assay [2, 5]: 100.87 % LS
Impurity B [2, 6]: 0.11 % RS
Impurity D [2, 6]: 0.030 % RS
sildenafil assay [2, 6]: 101.53 % LS
Impurity B [2, 7]: 0.20 % RS
Impurity D [2, 7]: 0.034 % RS
sildenafil assay [2, 7]: 100.91 % LS
Impurity B [2, 8]: 0.10 % RS
Impurity D [2, 8]: 0.030 % RS
sildenafil assay [2, 8]: 100.85 % LS
Impurity B [2, 9]: 0.20 % RS
Impurity D [2, 9]: 0.030 % RS
sildenafil assay [2, 9]: 101.46 % LS
Impurity B ([2]; glass, 25° C./60% RH, Day 32): 0.07 % RS
Impurity D ([2]; glass, 25° C./60% RH, Day 32): 0.030 % RS
sildenafil assay ([2]; glass, 25° C./60% RH, Day 32): 100.76 % LS
Impurity B ([2]; glass, 25° C./60% RH, Day 80): 0.10 % RS
Impurity D ([2]; glass, 25° C./60% RH, Day 80): 0.030 % RS
sildenafil assay ([2]; glass, 25° C./60% RH, Day 80): 101.47 % LS
Impurity B ([2]; glass, 25° C./60% RH, Day 159): 0.17 % RS
Impurity D ([2]; glass, 25° C./60% RH, Day 159): 0.038 % RS
sildenafil assay ([2]; glass, 25° C./60% RH, Day 159): 100.68 % LS
Impurity B ([2]; glass, 30° C./65% RH, Day 32): 0.10 % RS
Impurity D ([2]; glass, 30° C./65% RH, Day 32): 0.030 % RS
sildenafil assay ([2]; glass, 30° C./65% RH, Day 32): 100.46 % LS
Impurity B ([2]; glass, 40° C./75% RH, Day 32): 0.17 % RS
Impurity D ([2]; glass, 40° C./75% RH, Day 32): 0.030 % RS
sildenafil assay ([2]; glass, 40° C./75% RH, Day 32): 100.39 % LS
Impurity B ([2]; glass, 40° C./75% RH, Day 159): 0.45 % RS
Impurity D ([2]; glass, 40° C./75% RH, Day 159): 0.039 % RS
sildenafil assay ([2]; glass, 40° C./75% RH, Day 159): 100.60 % LS
Impurity B ([2]; plastic, 25° C./60% RH, Day 32): 0.08 % RS
Impurity D ([2]; plastic, 25° C./60% RH, Day 32): 0.040 % RS
sildenafil assay ([2]; plastic, 25° C./60% RH, Day 32): 100.42 % LS
Impurity B ([2]; plastic, 25° C./60% RH, Day 80): 0.09 % RS
Impurity D ([2]; plastic, 25° C./60% RH, Day 80): 0.030 % RS
sildenafil assay ([2]; plastic, 25° C./60% RH, Day 80): 101.59 % LS
Impurity B [2, 10]: 0.16 % RS
Impurity D [2, 10]: 0.033 % RS
sildenafil assay [2, 10]: 101.19 % LS
Impurity B ([2]; plastic, 30° C./65% RH, Day 32): 0.09 % RS
Impurity D ([2]; plastic, 30° C./65% RH, Day 32): 0.030 % RS
sildenafil assay ([2]; plastic, 30° C./65% RH, Day 32): 100.79 % LS
Impurity B ([2]; plastic, 40° C./75% RH, Day 32): 0.17 % RS
Impurity D ([2]; plastic, 40° C./75% RH, Day 32): 0.030 % RS
sildenafil assay ([2]; plastic, 40° C./75% RH, Day 32): 100.76 % LS
visual inspection for crystallization ([3]; 15 mg/ml, pH 4.39, NaCl diluent 100 mM, initially added to 40 ml of diluent, −20° C.): Prec.
visual inspection for crystallization ([3]; 15 mg/ml, pH 4.45, NaCl diluent 50 mM, −20° C.): Prec.
visual inspection for crystallization ([3]; 15 mg/ml, pH 4.52, NaCl diluent 25 mM, 2-8° C.): Prec.
visual inspection for crystallization ([3]; 15 mg/ml, pH 4.52, NaCl diluent 25 mM, −20° C.): Prec.
visual inspection for crystallization ([3]; 15 mg/ml, pH 4.75, purified water diluent, 2-8° C.): Prec.
visual inspection for crystallization ([3]; 15 mg/ml, pH 4.75, purified water diluent, −20° C.): Prec.
visual inspection for crystallization ([3]; 18 mg/ml, pH 5.5 (NaOH), NaCl diluent 100 mM, −20° C.): Prec.
visual inspection for crystallization ([3]; 21 mg/ml, pH 5.5 (NaOH), NaCl diluent 100 mM, −20° C.): Prec.
concentration of sildenafil by HPLC ([4]; 18 mg/ml, with sucralose, 2-8 ° C., Day 7): 18.55 mg/mL
concentration of sildenafil by HPLC ([4]; 18 mg/ml, with sucralose, 2-8 ° C., Day 42): 15.24 mg/mL
concentration of sildenafil by HPLC ([4]; 18 mg/ml, with sucralose, 25 ° C., Day 7): 18.00 mg/mL
concentration of sildenafil by HPLC ([4]; 18 mg/ml, with sucralose, 25 ° C., Day 42): 17.94 mg/mL
concentration of sildenafil by HPLC ([4]; 18 mg/ml, with sucralose, Day 0): 17.56 mg/mL
concentration of sildenafil by HPLC ([4]; 18 mg/ml, without sucralose, 2-8 ° C., Day 7): 18.33 mg/mL
concentration of sildenafil by HPLC ([4]; 18 mg/ml, without sucralose, 2-8 ° C., Day 42): 15.23 mg/mL
concentration of sildenafil by HPLC ([4]; 18 mg/ml, without sucralose, 25 ° C., Day 7): 18.08 mg/mL
concentration of sildenafil by HPLC ([4]; 18 mg/ml, without sucralose, 25 ° C., Day 42): 17.19 mg/mL
concentration of sildenafil by HPLC ([4]; 18 mg/ml, without sucralose, Day 0): 17.42 mg/mL
concentration of sildenafil by HPLC ([4]; 21 mg/ml, without sucralose, 2-8 ° C., Day 7): 22.11 mg/mL
concentration of sildenafil by HPLC ([4]; 21 mg/ml, without sucralose, 2-8 ° C., Day 42): 13.78 mg/mL
concentration of sildenafil by HPLC ([4]; 21 mg/ml, without sucralose, 25 ° C., Day 7): 20.40 mg/mL
concentration of sildenafil by HPLC ([4]; 21 mg/ml, without sucralose, 25 ° C., Day 42): 19.61 mg/mL
concentration of sildenafil by HPLC ([4]; 21 mg/ml, without sucralose, Day 0): 20.52 mg/mL
